Test results reported in patent US20250066423A1, “SESTRIN-MAPK COMPLEX INHIBITORS” (Sentcell Ltd, priority 2021, published 2025).

How the values were obtained:
[1] = system: sMAC signalling (sestrin 1, 2 and 3 expression, AMPK and MAPK phosphorylation); experiment: Immunoblot of sMAC signalling in CD4+ T cells treated with DOS compounds (heat-map); assay type: cell-based, human
Protocol: CD4+ T cells were isolated from PBMCs from healthy donors, treated with DOS compounds for 4 hours and harvested for immunoblot analysis. The heat-map of Sestrin 1, Sestrin 2, Sestrin 3, p-mTOR1, p-JNK, p-AMPK, p-ERK1/2, and p-p38, represents the mean of three to nine experiments. Histone 3 was used as a control.
• 1. CD4+ cells were separated from PBMC using appropriate microbeads kit (Miltenyi) • 2. Cells were resuspended in whole RPMI medium and plated in the 24-multiwell plate • 3. Then activated for 4 hrs with DOS compounds • 4. Cells were then harvested, washed with PBS and resuspended in lysis buffer (RIPA with […]) • 5. The cell-lysis mix was incubated for 20 mins on ice • 6. Samples were centrifuged for 20 mins at the max speed • 7. The supernatant was collected and Lemmli buffer+β-Mercaptoethanol was added • 8. Samples were then boiled for 5 mins at 95° C. • 9. Samples were loaded on the polyacrylamide gel and left to run in TRIS-Glycine-SDS running buffer • 10. Once the run was completed the proteins were transferred from the gel to the nitrocellulose membrane by using the Trans-Blot machine (Biorad) • 11. Membrane was washed with 0.1% Tween-TBS buffer and blocked in 5% non-fat milk for 1 hr • 12. Followed incubation with the primary antibody o.n. • 13. The day after, the membrane was washed with 0.1% Tween-TBS buffer for three times for at least 30 mins each • 14. Secondary antibody was then added for 1h • 15. The membrane was the washed with 0.1% Tween-TBS buffer for three times for at least 30 mins each • 16. The signal was developed using ECL solution
This was shown by downregulation of sestrin 1, 2 and 3 expression, and AMPK and MAPK phosphorylation.

[2] = system: Breast cancer cell line (MCF-7); experiment: Cancer cell death by FACS live-dead staining; assay type: cell-based; settings: 20 uM, 48 hours
Protocol: (§1) (Left) Immortalized paediatric neuroblastoma cell line (sh-sy5y) was treated at different concentrations of DOS46L and DOS144D (from 1 uM to 20 uM) for 48 hours, then analysed by FACS with live-dead staining. (Right) Breast cancer cell line (MCF-7) was treated at the fixed concentration of DOS46L and DOS144D (20 uM) for 48 hours, then analysed by FACS with live-dead dye staining. UN depicts untreated controls. Results of triplicate cultures are shown.

[3] = system: paediatric neuroblastoma cell line (sh-sy5y); experiment: Cancer cell death by FACS live-dead staining; assay type: cell-based; settings: 1 uM to 20 uM, 48 hours
Protocol: as §1

H1N1 PR8/54 = assay type: in vivo, mice; settings: old mice, vaccination with DOS, H1N1 PR8/54
[4] = biological target: T1, sMAC (sestrin 1, 2, and 3, AMPK and MAPKs) (Homo sapiens, UniProt P58004+Q9Y6P5); experiment: Pull-down of biotinylated DOS46L from CD4+ T cells; assay type: binding; settings: 10 uM, 4 hours
T1 construct: endogenous in cells; host or cells: primary CD4+ T cells from PBMCs of healthy donors
T1 sequence (Q9Y6P5 1-492): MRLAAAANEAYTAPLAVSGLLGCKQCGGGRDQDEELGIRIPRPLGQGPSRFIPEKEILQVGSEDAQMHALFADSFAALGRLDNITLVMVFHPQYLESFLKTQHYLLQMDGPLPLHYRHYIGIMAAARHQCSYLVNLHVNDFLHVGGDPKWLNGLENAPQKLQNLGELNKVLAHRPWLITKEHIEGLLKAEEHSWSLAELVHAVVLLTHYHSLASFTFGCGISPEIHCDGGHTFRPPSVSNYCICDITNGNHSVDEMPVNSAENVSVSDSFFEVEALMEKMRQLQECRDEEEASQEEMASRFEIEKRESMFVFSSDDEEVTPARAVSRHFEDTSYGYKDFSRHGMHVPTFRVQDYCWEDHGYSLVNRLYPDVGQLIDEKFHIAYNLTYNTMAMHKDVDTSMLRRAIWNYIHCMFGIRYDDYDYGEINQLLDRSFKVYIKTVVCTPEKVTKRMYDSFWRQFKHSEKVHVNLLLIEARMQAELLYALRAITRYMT
T1 sequence (P58004 1-480): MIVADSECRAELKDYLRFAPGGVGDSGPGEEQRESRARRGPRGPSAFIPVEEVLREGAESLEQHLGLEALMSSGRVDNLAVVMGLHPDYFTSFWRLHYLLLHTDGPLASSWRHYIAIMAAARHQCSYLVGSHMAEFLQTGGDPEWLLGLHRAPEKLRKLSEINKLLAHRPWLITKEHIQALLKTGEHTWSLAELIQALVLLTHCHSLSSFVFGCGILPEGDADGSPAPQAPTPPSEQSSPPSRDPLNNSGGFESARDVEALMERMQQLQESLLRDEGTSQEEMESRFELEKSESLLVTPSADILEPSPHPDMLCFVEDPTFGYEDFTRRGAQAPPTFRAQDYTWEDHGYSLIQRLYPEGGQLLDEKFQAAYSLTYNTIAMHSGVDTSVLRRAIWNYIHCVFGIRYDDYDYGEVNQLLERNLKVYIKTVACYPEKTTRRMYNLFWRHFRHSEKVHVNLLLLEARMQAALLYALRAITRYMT
T1 sequence (P58005 1-492 partner): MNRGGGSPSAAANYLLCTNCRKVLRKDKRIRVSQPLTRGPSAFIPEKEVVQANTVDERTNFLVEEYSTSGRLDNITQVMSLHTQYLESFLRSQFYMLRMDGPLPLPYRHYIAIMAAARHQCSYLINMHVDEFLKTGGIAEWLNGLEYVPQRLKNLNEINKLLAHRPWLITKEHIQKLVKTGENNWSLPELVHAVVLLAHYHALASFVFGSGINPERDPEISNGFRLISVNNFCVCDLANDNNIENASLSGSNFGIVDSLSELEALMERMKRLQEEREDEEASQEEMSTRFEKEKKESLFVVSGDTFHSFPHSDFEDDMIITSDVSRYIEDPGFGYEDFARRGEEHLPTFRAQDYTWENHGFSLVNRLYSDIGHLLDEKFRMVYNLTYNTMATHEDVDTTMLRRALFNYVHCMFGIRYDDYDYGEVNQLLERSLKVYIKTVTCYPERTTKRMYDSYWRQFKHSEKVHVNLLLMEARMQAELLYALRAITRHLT
Protocol: (§2) (A) Biotinylated DOS46L was mixed with flag recombinant Sestrins, immunoprecipitated with streptavidin and immunoblotted with flag Sestrins. […] Representative images from three experiments are shown. […] (D) DOS46L binds to the entire sMAC complex in CD4 T cells. CD4+ T cells were isolated from PBMCs from healthy donors and treated with biotinylated DOS46L compound (10 uM) for 4 hours. Cells were harvested for immunoprecipitation analysis.
(§3) • 1. Cell pellet was lysed with 100 μL of denaturing lysis buffer • 2. Then mixed well by vortexing vigorously for 2-3 sec at maximum speed. • 3. Samples were then boiled at 95° C. for 5 min. • 4. Samples were then diluted 900 μl of non-denaturing lysis buffer and mixed gently. • 5. Cell lysates were then passed through a needle attached to a 1 ml syringe for 5-10 times or were sonicated. • 6. Incubated then on ice for 5 min • 7. Samples were pre-cleaned by spinning at the max speed at 4° C. for 20 min. • 8. Supernatants were collected in a new tube • 9. 7 ul (5 μg) of SESN2 (abcam) primary anti-body was added directly to the supernatant and incubated on the rota o.n. at 4° C. • 10. 200 ul of protein A/G beads were washed 4-5 times in IP buffer and blocked then o.n. in IP buffer with BSA and left on the rota at 4° C. • 11. The day after, 50 ul of protein A/G beads were added to the sample and incubated for 3 hrs on the rota at 4° C. • 12. […]

[5] = biological target: T2, GATOR complex (WDR59 and mTOR) (Homo sapiens, UniProt P42345+Q6PJI9); experiment: Pull-down of biotinylated DOS46L from CD4+ T cells; assay type: binding; settings: 10 uM, 4 hours
T2 construct: endogenous in cells; host or cells: primary CD4+ T cells from PBMCs of healthy donors
T2 sequence (Q6PJI9 whole entry, other chains not shown): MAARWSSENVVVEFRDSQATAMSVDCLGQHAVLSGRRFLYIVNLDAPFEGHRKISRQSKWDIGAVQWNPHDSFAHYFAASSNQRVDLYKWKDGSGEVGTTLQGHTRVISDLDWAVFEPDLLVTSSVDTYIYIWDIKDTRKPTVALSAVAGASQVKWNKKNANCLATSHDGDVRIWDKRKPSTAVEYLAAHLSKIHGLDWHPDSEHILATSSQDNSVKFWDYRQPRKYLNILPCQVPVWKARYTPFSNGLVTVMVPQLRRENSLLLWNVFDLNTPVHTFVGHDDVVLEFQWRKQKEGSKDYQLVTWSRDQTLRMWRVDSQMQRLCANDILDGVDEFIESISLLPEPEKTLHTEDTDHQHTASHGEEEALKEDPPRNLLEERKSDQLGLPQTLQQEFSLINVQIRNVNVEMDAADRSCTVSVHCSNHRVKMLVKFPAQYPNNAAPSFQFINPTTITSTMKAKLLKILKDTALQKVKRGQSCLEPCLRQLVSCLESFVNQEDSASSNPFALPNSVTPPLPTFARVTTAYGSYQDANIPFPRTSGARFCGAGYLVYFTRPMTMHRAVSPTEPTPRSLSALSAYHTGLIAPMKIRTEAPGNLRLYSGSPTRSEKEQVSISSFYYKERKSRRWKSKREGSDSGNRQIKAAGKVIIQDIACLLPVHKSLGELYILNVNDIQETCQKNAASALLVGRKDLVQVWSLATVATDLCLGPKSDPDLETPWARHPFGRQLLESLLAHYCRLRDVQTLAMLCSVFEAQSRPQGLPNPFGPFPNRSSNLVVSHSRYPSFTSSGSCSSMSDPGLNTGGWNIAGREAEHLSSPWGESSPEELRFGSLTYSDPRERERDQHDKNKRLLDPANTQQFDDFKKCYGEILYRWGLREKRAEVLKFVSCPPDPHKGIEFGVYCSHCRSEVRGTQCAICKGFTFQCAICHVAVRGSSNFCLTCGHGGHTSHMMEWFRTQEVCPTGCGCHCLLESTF
Protocol: as §2, §3

Sestrin 2 = biological target: T3, Sestrin 2 (Homo sapiens, UniProt P58004); experiment: Streptavidin pull-down of biotinylated DOS46L with flag recombinant sestrins; assay type: binding; settings: streptavidin immunoprecipitation
T3 sequence (P58004 1-480): T1 sequence (P58004 1-480)
Protocol: as §2
(§4) The selective interaction was also studied using the cutting-edge […] algorithm for molecular docking predictions based on the deposited sestrin 2 crystal structure.

sestrin 1 = biological target: T4, sestrin 1 (Homo sapiens, UniProt Q9Y6P5); experiment: as above; assay type: binding; settings: streptavidin immunoprecipitation
T4 sequence (Q9Y6P5 1-492): T1 sequence (Q9Y6P5 1-492)
Protocol: as §2, §4

[6] = biological target: T5, flag recombinant Sestrin 3 (UniProt P58005 1-492, limits assumed); experiment: recombinant sestrins, precipitation and immunoblot (FIG. 8B-C)
T5 construct: also called flagged sestrin 3; not shown: flag tag
T5 sequence (looked up): T1 sequence (P58005 1-492 partner)

## CC(C)C[C@H]1NC(=O)[C@@H](CC(C)C)NC(=O)[C@@H](Cc2c[nH]c3ccccc23)NC(=O)[C@@H](CCC(=O)O)NC(=O)CNC1=O [DOS144D]
[1]
  effectiveness at sMAC inactivation among all of the DOS compounds tested: most effective
[1]; CD4+ T cells, 4 hours, FIG. 5 heat-map
  sestrins inhibited (pan or selective inhibitor): inhibit all three sestrins
[2]
  cancer cell death: induction of cancer cell death
[3]
  cancer cell death: induction of cancer cell death
H1N1 PR8/54
  survival data, comparison of compounds: similar

## biotinylated DOS46L: biotinylated variant of DOS46L used for pull-down (cyclo(AFIPV); also: biotinylated, site not given here)
[4]
  association with sMAC in cells: found in the sMAC
[5]
  association with elements of the GATOR complex in cells: not with elements of the GATOR complex
Sestrin 2
  direct binding to sestrin 2: directly binds
Sestrin 1
  direct binding to sestrin 1: directly binds

B1: flag recombinant Sestrin 1 (other, UniProt Q9Y6P5 1-492, looked up)
chain: T1 sequence (Q9Y6P5 1-492)
notes: also called flagged sestrin 1; not shown: flag tag
[6]
  binding result: no binding
